Assay results reported in ChEMBL document CHEMBL5465560, “Selectivity Literature for EUbOPEN Chemogenomic Library” (2024).

Legend:
[1] = biological target: Serine/threonine-protein kinase Chk2 (Homo sapiens) (UniProt O96017); assay: Selectivity interaction (KinomeScan (DiscoverX)) EUB0001049a CHEK2; conditions: at 1 µM
[2] = system: Tyrosine-protein kinase ABL1 (Homo sapiens), P00519 [F317L]; assay: Selectivity interaction (KinomeScan (DiscoverX)) EUB0001049a ABL1; conditions: at 1 µM
[3] = biological target: T1, Myosin-IIIb (Homo sapiens) (UniProt Q8WXR4); assay: Selectivity interaction (LanthaScreen Eu Kinase Binding Assay) EUB0001632a MYO3B; conditions: at 10 µM
T1 sequence (whole entry): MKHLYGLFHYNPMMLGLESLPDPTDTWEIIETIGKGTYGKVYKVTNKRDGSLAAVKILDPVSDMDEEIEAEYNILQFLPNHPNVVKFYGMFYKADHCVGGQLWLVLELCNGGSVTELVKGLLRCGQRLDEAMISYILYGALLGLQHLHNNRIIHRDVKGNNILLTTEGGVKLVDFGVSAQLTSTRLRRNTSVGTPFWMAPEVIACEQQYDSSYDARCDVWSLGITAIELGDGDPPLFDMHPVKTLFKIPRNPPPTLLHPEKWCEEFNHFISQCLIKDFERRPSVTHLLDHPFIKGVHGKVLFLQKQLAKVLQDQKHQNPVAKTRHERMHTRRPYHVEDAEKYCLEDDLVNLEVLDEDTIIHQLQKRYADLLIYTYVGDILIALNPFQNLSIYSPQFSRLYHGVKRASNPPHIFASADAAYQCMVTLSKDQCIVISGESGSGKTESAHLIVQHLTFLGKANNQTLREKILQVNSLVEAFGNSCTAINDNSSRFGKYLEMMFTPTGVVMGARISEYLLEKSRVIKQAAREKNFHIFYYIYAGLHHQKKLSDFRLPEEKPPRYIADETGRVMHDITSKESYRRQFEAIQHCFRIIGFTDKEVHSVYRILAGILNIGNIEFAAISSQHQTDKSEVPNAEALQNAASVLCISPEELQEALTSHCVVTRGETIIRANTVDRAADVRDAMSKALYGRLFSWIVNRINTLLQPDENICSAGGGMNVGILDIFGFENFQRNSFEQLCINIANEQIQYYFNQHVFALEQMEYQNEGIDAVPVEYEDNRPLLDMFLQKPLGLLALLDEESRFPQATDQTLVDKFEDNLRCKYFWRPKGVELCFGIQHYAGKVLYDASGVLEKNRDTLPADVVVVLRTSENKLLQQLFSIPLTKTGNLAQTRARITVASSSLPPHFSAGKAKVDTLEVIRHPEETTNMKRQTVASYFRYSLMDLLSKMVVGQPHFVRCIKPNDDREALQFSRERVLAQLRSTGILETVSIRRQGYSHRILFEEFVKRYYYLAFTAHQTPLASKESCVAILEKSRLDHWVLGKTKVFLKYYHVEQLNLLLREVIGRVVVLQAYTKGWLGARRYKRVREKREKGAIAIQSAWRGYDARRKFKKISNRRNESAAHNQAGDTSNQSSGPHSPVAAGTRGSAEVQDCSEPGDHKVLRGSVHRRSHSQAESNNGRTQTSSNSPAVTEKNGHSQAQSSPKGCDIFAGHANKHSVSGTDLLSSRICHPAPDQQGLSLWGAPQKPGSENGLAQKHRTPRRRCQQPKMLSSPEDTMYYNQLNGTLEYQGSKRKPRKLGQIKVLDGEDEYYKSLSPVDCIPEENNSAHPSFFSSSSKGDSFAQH

[4] = biological target: MAP/microtubule affinity-regulating kinase 3 (Homo sapiens) (UniProt P27448); assay: Selectivity interaction (KinomeScan (DiscoverX)) EUB0000695a MARK3; conditions: at 100 nM
Sequence of MAP/microtubule affinity-regulating kinase 3 (Homo sapiens) (P27448 whole entry, looked up): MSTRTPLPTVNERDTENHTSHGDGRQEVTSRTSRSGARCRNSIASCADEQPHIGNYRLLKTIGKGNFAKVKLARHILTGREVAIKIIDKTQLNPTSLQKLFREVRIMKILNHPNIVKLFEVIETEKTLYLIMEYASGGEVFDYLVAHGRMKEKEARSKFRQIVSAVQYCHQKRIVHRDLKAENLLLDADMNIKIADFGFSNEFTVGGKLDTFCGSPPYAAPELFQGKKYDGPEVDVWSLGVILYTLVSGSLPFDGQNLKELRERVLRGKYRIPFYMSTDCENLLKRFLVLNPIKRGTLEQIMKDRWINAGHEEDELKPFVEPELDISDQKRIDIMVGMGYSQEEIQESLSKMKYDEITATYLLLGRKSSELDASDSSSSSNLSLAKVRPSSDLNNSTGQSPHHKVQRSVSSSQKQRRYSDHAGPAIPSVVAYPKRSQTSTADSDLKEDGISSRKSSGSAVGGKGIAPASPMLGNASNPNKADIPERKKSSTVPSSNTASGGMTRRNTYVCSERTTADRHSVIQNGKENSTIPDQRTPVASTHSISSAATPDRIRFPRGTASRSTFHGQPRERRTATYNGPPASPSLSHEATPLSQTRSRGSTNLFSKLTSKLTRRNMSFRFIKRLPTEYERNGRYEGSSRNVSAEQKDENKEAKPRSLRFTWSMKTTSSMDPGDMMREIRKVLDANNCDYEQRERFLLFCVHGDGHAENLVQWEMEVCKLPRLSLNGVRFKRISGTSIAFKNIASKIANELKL

[5] = biological target: T2, Phosphatidylinositol 5-phosphate 4-kinase type-2 gamma (Homo sapiens) (UniProt Q8TBX8); assay: Selectivity interaction (KinomeScan (DiscoverX)) EUB0000695a PIP4K2C; conditions: at 100 nM
T2 sequence (whole entry): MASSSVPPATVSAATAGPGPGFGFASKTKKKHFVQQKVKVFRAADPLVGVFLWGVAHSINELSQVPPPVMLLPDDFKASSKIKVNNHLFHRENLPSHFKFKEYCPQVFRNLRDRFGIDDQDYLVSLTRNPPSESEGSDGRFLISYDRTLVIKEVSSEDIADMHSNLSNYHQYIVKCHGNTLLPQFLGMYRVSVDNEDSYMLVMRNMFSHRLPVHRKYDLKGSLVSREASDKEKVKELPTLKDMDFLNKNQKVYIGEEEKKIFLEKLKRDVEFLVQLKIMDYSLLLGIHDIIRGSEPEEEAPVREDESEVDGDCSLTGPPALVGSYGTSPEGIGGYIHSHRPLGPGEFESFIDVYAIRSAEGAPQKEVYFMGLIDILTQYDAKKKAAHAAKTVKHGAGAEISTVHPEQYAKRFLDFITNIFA

[6] = biological target: Serine/threonine-protein kinase PAK 3 (Homo sapiens) (UniProt O75914); assay: Selectivity interaction (KinomeScan (DiscoverX)) EUB0000229b PAK3; conditions: at 10 µM
Sequence of Serine/threonine-protein kinase PAK 3 (Homo sapiens) (O75914 whole entry, looked up): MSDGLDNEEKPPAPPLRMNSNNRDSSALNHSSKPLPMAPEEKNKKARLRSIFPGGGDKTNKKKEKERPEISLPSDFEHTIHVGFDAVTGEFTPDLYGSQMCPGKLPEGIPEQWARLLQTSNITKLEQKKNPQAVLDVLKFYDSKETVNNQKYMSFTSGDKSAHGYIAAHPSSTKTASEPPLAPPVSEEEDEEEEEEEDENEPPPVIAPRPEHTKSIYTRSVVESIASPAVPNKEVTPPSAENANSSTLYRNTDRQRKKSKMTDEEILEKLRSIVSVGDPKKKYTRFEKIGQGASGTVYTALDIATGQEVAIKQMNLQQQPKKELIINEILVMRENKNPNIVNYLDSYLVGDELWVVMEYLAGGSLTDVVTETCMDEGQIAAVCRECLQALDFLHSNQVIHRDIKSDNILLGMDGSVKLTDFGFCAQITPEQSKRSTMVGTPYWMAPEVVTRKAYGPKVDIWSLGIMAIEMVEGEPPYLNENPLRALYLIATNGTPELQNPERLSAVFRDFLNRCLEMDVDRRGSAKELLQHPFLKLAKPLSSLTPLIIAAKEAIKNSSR

[7] = biological target: Tyrosine-protein kinase Srms (Homo sapiens) (UniProt Q9H3Y6); assay: Selectivity interaction (KinomeScan (DiscoverX)) EUB0000618a SRMS; conditions: at 10 µM
Sequence of Tyrosine-protein kinase Srms (Homo sapiens) (Q9H3Y6 whole entry, canonical isoform): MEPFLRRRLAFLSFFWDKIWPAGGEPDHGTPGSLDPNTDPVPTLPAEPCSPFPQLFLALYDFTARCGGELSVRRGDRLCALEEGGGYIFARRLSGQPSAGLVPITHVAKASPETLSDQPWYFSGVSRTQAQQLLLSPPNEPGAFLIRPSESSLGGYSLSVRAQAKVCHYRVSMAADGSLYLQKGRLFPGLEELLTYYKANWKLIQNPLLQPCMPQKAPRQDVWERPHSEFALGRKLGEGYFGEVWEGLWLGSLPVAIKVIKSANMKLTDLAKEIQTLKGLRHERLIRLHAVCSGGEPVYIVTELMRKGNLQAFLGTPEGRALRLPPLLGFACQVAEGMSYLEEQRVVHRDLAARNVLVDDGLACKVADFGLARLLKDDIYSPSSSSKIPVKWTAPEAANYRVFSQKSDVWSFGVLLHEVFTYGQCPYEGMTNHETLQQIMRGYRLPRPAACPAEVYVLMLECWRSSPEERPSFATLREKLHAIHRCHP

[8] = biological target: Casein kinase I isoform gamma-1 (Homo sapiens) (UniProt Q9HCP0); assay: Selectivity interaction (KinomeScan (DiscoverX)) EUB0000618a CSNK1G1; conditions: at 10 µM
Sequence of Casein kinase I isoform gamma-1 (Homo sapiens) (Q9HCP0 whole entry, looked up, canonical isoform): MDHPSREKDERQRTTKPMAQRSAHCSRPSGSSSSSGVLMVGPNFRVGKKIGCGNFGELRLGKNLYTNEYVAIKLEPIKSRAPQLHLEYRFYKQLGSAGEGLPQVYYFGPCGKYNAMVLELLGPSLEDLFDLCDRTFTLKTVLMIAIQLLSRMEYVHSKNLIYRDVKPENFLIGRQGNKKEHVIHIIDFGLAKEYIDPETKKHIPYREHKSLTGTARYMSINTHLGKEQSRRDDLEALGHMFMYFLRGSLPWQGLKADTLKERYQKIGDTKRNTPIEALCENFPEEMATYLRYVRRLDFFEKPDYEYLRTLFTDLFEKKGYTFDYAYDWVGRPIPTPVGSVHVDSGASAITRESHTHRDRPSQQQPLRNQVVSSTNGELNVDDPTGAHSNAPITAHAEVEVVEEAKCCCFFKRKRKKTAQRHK

[9] = Selectivity interaction (Kinase panel (KiNativ target engagement assay in Jurkat cells)) EUB0001635a STLK6; conditions: Selectivity number of off-targets 0; Selectivity number of targets 233; Source Knowledge https://www.sciencedirect.com/science/article/pii/S2451945619300674?via%3Dihub; at 1 µM
[10] = biological target: MAP kinase-interacting serine/threonine-protein kinase 1 (Homo sapiens) (UniProt Q9BUB5); assay: Selectivity interaction (KinomeScan (DiscoverX)) EUB0000666a MKNK1; conditions: at 10 µM
Sequence of MAP kinase-interacting serine/threonine-protein kinase 1 (Homo sapiens) (Q9BUB5 whole entry, looked up): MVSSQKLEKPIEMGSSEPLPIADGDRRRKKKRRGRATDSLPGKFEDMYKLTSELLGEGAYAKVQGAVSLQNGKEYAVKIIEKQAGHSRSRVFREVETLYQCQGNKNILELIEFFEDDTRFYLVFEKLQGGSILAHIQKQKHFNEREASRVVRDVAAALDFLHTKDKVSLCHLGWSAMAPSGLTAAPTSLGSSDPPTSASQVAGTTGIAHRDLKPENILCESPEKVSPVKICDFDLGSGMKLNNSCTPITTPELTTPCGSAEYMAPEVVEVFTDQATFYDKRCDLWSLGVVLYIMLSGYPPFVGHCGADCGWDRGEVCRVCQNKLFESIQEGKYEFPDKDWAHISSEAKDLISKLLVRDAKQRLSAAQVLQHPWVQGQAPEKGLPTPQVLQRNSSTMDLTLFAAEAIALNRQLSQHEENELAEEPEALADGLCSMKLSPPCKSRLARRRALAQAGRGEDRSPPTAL

Sequence of Serine/threonine-protein kinase Chk2 (Homo sapiens) (O96017 whole entry): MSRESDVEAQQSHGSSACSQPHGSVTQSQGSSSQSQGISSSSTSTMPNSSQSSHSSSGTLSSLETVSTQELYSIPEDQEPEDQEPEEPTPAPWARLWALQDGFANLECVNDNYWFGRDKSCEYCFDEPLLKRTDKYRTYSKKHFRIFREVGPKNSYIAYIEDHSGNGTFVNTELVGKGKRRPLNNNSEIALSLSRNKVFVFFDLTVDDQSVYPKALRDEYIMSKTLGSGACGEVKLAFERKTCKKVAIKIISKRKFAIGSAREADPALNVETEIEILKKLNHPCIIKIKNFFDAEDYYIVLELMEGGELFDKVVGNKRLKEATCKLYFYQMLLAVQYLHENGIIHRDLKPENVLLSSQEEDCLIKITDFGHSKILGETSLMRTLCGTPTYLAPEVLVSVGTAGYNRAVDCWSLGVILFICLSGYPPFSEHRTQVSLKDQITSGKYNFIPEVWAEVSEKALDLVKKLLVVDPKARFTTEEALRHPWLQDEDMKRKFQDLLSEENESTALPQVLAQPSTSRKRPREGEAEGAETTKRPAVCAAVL
Sequence of Tyrosine-protein kinase ABL1 (Homo sapiens), P00519 [F317L] (P00519 whole entry F317L): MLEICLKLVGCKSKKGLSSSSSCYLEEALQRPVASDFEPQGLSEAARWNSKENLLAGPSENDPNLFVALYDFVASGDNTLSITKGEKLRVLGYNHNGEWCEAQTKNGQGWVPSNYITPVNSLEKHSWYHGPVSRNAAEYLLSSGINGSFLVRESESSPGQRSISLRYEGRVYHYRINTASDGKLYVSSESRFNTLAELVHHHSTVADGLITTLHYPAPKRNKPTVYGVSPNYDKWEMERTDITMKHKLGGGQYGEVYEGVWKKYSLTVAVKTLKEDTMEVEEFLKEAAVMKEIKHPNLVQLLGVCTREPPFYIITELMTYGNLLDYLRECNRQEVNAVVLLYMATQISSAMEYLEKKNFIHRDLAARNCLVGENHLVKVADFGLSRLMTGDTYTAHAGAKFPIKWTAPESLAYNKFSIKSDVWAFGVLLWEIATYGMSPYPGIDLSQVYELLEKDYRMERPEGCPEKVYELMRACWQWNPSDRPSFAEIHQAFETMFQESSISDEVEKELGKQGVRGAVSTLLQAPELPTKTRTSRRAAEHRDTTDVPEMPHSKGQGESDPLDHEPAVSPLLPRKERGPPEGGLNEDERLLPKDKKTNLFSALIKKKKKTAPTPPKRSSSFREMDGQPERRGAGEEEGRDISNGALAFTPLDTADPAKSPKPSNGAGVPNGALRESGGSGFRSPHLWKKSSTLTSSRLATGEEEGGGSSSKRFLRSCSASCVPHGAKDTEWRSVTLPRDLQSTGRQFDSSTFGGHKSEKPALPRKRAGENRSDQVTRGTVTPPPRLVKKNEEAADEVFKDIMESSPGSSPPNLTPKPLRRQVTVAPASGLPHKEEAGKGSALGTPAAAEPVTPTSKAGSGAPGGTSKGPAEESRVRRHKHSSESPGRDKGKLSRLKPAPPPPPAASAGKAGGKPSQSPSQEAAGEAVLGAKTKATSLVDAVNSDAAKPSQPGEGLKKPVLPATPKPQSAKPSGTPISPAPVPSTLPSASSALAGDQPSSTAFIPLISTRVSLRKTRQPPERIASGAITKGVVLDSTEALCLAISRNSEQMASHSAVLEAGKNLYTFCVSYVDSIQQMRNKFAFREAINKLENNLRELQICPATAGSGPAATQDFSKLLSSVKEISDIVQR

**Q.** For COc1cc(Nc2nc(C)cc(-c3cnn4nc(OC)ccc34)n2)cc(C(F)(F)F)c1, which % of control [1] is on record?
**A.** The % of control was 54%.

**Q.** And the % of control [2]?
**A.** Its % of control is 91%.

**Q.** Which % of inhibition [3] does the source give for Cn1cc(-n2cnc3c(NCc4nc5cc(Cl)c(Cl)cc5[nH]4)nc(N4CCOCC4)nc32)cn1 here?
**A.** Its % of inhibition is -8.99%.

**Q.** For Cc1cc(F)c(C(=O)Nc2cccc(-c3nncn3C(C)C)n2)cc1-n1cnc(C2CC2)c1, which % of control [4] is on record?
**A.** The % of control was 90%.

**Q.** And the % of control [5]?
**A.** Its % of control is 100%.

**Q.** Which % binding [6] does the source give for COc1cc(N(C)c2ccnc3ccc(C(F)(F)F)cc23)cc(OC)c1OC here?
**A.** Its % binding is 96%.

**Q.** What does the source list for O[C@H]1CC[C@H](Nc2ncc3nc(Nc4c(F)cc(F)cc4F)n([C@H]4CCOC4)c3n2)CC1?
**A.** % of control [7]: 89%; % of control [8]: 100%

**Q.** With C=CC(=O)Nc1ccc(C(=O)Nc2[nH]nc3c2CN(C(=O)N[C@H](CN(C)C)c2ccccc2)C3(C)C)cc1 as the compound, how does the “% of engagement” value [9] read?
**A.** The value was -9%.

**Q.** With O=C(NOC[C@H](O)CO)c1ccc(F)c(F)c1Nc1ccc(I)cc1F as the compound, how does the % of control [10] read?
**A.** The % of control was 100%.
